This note sets out measurements from patent publication US8912209B2, “Rock inhibitors” (Amakem NV, priority 2010, dated 2014).

In this experiment the target is T1, ROCK II (Homo sapiens, UniProt O75116).
T1 construct: purchased Proqinase
The experiment in a line: ROCK II kinase inhibition, Method 1 Proqinase setup (33P radioisotopic protein kinase assay). The experiment is classed as biochemical. The note with it: 33P radioisotopic assay, 1 μM ATP, read-out: IC50 Meth. 1. As to the method: A ^33P radioisotopic protein kinase assay is used to determine the IC50 for inhibiting ROCK II. A final 50 μl reaction cocktail, containing 60 mM HEPES-NaOH (pH 7.5), 3 mM MgCl2, 3 mM MnCl2, 3 μM Na-orthovanadate, 1.2 mM DTT, 1 μM ATP, 50 μg/ml PEG20.000, 1% (v/v) DMSO, 1 μM ATP (approx. 3×10^5 cpm ^33P-γ-ATP), the substrate (Substrate: S6 peptide—2000 ng/well) and recombinant protein kinase (0.5 nM-2.5 ng/well) is mixed on a shaker and incubated at 30° C. for 80 minutes. The reaction is stopped by the addition of 50 μl of a 2% solution of H3PO4 and mixed on a shaker. After washing twice with 200 μl of a 0.9% solution of NaCl, the dry plate is counted.

Broadly, the IC50 is the concentration needed to halve the response being measured.

T1 sequence (O75116 whole entry): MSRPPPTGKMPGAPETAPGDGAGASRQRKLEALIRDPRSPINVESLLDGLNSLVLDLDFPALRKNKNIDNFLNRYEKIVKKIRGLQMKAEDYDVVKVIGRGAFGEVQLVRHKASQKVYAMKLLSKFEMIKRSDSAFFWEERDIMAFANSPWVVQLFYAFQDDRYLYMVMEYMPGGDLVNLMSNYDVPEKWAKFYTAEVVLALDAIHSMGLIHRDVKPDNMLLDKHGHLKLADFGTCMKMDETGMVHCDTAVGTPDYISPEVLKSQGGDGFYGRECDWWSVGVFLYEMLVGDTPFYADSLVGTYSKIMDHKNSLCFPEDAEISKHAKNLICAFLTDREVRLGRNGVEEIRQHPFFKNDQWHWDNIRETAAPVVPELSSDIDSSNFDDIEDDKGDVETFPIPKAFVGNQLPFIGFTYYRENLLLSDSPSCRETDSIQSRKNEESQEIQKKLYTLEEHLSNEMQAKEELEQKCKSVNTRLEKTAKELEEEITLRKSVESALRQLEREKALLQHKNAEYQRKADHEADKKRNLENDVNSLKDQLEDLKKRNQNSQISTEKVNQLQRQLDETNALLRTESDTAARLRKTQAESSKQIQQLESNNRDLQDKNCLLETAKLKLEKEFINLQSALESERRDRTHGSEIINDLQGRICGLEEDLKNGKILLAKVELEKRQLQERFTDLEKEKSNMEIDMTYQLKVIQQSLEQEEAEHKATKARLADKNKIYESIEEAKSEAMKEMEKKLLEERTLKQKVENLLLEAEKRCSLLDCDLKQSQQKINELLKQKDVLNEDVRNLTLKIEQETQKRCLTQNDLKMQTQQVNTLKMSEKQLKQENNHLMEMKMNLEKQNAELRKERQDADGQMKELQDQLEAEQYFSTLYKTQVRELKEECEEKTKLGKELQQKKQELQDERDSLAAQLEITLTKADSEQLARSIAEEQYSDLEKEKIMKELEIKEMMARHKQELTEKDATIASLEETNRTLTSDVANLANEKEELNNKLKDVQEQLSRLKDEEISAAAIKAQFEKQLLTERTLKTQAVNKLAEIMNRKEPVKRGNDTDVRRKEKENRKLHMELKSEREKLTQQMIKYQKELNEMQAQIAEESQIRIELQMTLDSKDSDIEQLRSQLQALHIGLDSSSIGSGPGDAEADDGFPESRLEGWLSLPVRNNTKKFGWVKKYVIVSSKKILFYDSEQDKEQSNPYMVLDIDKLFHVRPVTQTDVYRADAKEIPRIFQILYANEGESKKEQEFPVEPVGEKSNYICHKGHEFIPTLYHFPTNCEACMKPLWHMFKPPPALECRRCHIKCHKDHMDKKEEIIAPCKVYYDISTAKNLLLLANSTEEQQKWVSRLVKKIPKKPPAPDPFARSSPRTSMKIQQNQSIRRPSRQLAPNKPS

On to `NCc1ccc(C(=O)Nc2ccncc2)cc1-c1cccc(C(=O)OCC2COc3ccccc3O2)c1` (centres unmarked) [Compound 55, 2′-Aminomethyl-5′-(pyridin-4-ylcarbamoyl)-biphenyl-3-carboxylic acid 2,3-dihydro-benzo[1,4]dioxin-2-ylmethyl ester], for which the IC50 was less than 0.1 µM.

On to `NCc1ccc(C(=O)Nc2ccncc2)cc1-c1cccc(C(=O)OC2CCC2)c1` [Compound 31, 2′-Aminomethyl-5′-(pyridin-4-ylcarbamoyl)-biphenyl-3-carboxylic acid cyclobutyl ester], for which the IC50 is 0.1 to 1 µM.

Consider `CCCCCCOC(=O)c1cccc(-c2cc(C(=O)Nc3ccncc3)ccc2CN)c1` [Compound 17, 2′-Aminomethyl-5′-(pyridin-4-ylcarbamoyl)-biphenyl-3-carboxylic acid hexyl ester], for which the IC50 lay within 0.1 to 1 µM.

As for `COC(=O)C1CCCCN1C(=O)c1cccc(-c2cc(C(=O)Nc3ccncc3)ccc2CN)c1` (centres unmarked) [Compound 122, 1-[2′-Aminomethyl-5′-(pyridin-4-ylcarbamoyl)-biphenyl-3-carbonyl]-piperidine-2-carboxylic acid methyl ester], the IC50 was 1 to 10 µM.

On to `NCc1ccc(C(=O)Nc2ccncc2F)cc1-c1cccc(CC(=O)OCC23CC4CC(CC(C4)C2)C3)c1` [Compound 182], for which the IC50 lay within 0.1 to 1 µM.

On to `N#CCCOC(=O)Cc1cccc(-c2cc(C(=O)Nc3ccncc3F)ccc2CN)c1` [Compound 194], for which the IC50 was 1 to 10 µM.

As for `NCc1ccc(C(=O)Nc2ccncc2F)cc1-c1cccc(OCC(=O)OCc2ccccc2)c1` [Compound 181], the IC50 lay in the range of 1 to 10 µM.

On to `CC(C)OC(=O)c1cccc(-c2cc(C(=O)Nc3ccncc3)ccc2CN)c1` [Compound 26, 2′-Aminomethyl-5′-(pyridin-4-ylcarbamoyl)-biphenyl-3-carboxylic acid isopropyl ester], for which the IC50 was in the range of 0.1 to 1 µM.

As for `CCOC(=O)c1cccc(-c2cc(C(=O)Nc3ccncc3)ccc2CN)c1` [Compound 7, 2′-Aminomethyl-5′-(pyridin-4-ylcarbamoyl)-biphenyl-3-carboxylic acid ethyl ester], the IC50 was 0.1 to 1 µM.

Take `NCc1ccc(C(=O)Nc2ccncc2)cc1-c1cccc(NCCSC2CCOC2=O)c1` (centres unmarked) [Compound 136, 6-Aminomethyl-3′-[2-(2-oxo-tetrahydro-furan-3-ylsulfanyl)-ethylamino]-biphenyl-3-carboxylic acid pyridin-4-ylamide]: the IC50 lay within 0.1 to 1 µM.

With `NCc1ccc(C(=O)Nc2ccncc2)cc1-c1cccc(C(=O)NCCC2COC(=O)O2)c1` (centres unmarked) [Compound 113, 6-Aminomethyl-biphenyl-3,3′-dicarboxylic acid 3′-{[2-(2-oxo-[1,3]dioxolan-4-yl)-ethyl]-amide} 3-pyridin-4-ylamide], the 50% inhibitory concentration (IC50) is 0.1 to 1 µM.

With `NCc1ccc(C(=O)Nc2ccncc2)cc1-c1cccc(C(=O)NCC(N)=O)c1` [Compound 106, 6-Aminomethyl-biphenyl-3,3′-dicarboxylic acid 3′-carbamoylmethyl-amide 3-pyridin-4-ylamide], the IC50 is less than 0.1 µM.

Regarding `NCc1ccc(C(=O)Nc2ccncc2)cc1-c1cccc(C(=O)OC2CCOCC2)c1` [Compound 43, 2′-Aminomethyl-5′-(pyridin-4-ylcarbamoyl)-biphenyl-3-carboxylic acid tetrahydro-pyran-4-yl ester], the IC50 was in the range of 0.1 to 1 µM.

Take `CN1CCC(OC(=O)c2cccc(-c3cc(C(=O)Nc4ccncc4)ccc3CN)c2)CC1` [Compound 48, 2′-Aminomethyl-5′-(pyridin-4-ylcarbamoyl)-biphenyl-3-carboxylic acid 1-methyl-piperidin-4-yl ester]: the IC50 lay in the range of 0.1 to 1 µM.

On to `NCc1ccc(C(=O)Nc2ccncc2)cc1-c1cccc(C(=O)OC2CCCC2)c1` [Compound 32, 2′-Aminomethyl-5′-(pyridin-4-ylcarbamoyl)-biphenyl-3-carboxylic acid cyclopentyl ester], for which the 50% inhibitory concentration (IC50) lay in the range of 0.1 to 1 µM.

On to `NCc1ccc(C(=O)Nc2ccncc2F)cc1-c1cccc(CC(=O)OCCO)c1` [Compound 195], for which the half-maximal inhibitory concentration (IC50) lay in the range of 1 to 10 µM.

Turning to `COC(=O)CNC(=O)c1cccc(-c2cc(C(=O)Nc3ccncc3)ccc2CN)c1` [Compound 102, {[2′-Aminomethyl-5′-(pyridin-4-ylcarbamoyl)-biphenyl-3-carbonyl]-amino}-acetic acid methyl ester], the IC50 was less than 0.1 µM.

`CCCOC(=O)c1cccc(-c2cc(C(=O)Nc3ccncc3)ccc2CN)c1` [Compound 10, 2′-Aminomethyl-5′-(pyridin-4-ylcarbamoyl)-biphenyl-3-carboxylic acid propyl ester]: the IC50 was 0.1 to 1 µM.

Consider `NCc1ccc(C(=O)Nc2ccncc2F)cc1-c1cccc(C(=O)OCC2CCCO2)c1` (centres unmarked) [Compound 187], for which the IC50 was 0.1 to 1 µM.

For the compound `COC(=O)c1ccc(-c2cc(C(=O)Nc3ccncc3)ccc2CN)cc1` [Compound 2, 2′-Aminomethyl-5′-(pyridin-4-ylcarbamoyl)-biphenyl-4-carboxylic acid methyl ester], the IC50 lay in the range of 1 to 10 µM.

`NCc1ccc(C(=O)Nc2ccncc2F)cc1-c1cccc(CC(=O)OCCF)c1` [Compound 192]: the IC50 is 1 to 10 µM.

Consider `COC(=O)c1cccc(-c2cc(C(=O)Nc3ccncc3)ccc2CN)c1` [Compound 1, 2′-Aminomethyl-5′-(pyridin-4-ylcarbamoyl)-biphenyl-3-carboxylic acid methyl ester], for which the IC50 was less than 0.1 µM.

As for `NCc1ccc(C(=O)Nc2ccncc2F)cc1-c1cccc(C(=O)OCC2CCCC2)c1` [Compound 185], the 50% inhibitory concentration (IC50) was in the range of 0.1 to 1 µM.

As for `COC(=O)CNC(=O)COc1cccc(-c2cc(C(=O)Nc3ccncc3)ccc2CN)c1` [Compound 147, {2-[2′-Aminomethyl-5′-(pyridin-4-ylcarbamoyl)-biphenyl-3-yloxy]-acetylamino}-acetic acid methyl ester], the IC50 was less than 0.1 µM.

Turning to `NCc1ccc(C(=O)Nc2ccncc2F)cc1-c1cccc(C(=O)OCCC23CC4CC(CC(C4)C2)C3)c1` [Compound 189], the IC50 lay within 0.1 to 1 µM.

In the case of `NCc1ccc(C(=O)Nc2ccncc2F)cc1-c1cccc(C(=O)OCCO)c1` [Compound 183], the half-inhibitory concentration (IC50) lay within 0.1 to 1 µM.

On to `NCc1ccc(C(=O)Nc2ccncc2F)cc1-c1cccc(OCC(=O)OCC2CCCC2)c1` [Compound 191], for which the IC50 is 0.1 to 1 µM.

Consider `NCc1ccc(C(=O)Nc2ccncc2)cc1-c1cccc(C(=O)OC2CCCCC2)c1` [Compound 35, 2′-Aminomethyl-5′-(pyridin-4-ylcarbamoyl)-biphenyl-3-carboxylic acid cyclohexyl ester], for which the IC50 lay in the range of 0.1 to 1 µM.

Turning to `COC(=O)C1CCN(C(=O)c2cccc(-c3cc(C(=O)Nc4ccncc4)ccc3CN)c2)C1` (centres unmarked) [Compound 127, 1-[2′-Aminomethyl-5′-(pyridin-4-ylcarbamoyl)-biphenyl-3-carbonyl]-pyrrolidine-3-carboxylic acid methyl ester], the IC50 fell in the range of 1 to 10 µM.

On to `NCc1ccc(C(=O)Nc2ccncc2)cc1-c1cccc(C(=O)Oc2ccccc2F)c1` [Compound 53, 2′-Aminomethyl-5′-(pyridin-4-ylcarbamoyl)-biphenyl-3-carboxylic acid 2-fluoro-phenyl ester], for which the IC50 is 0.1 to 1 µM.

Regarding `COCCOC(=O)c1cccc(-c2cc(C(=O)Nc3ccncc3)ccc2CN)c1` [Compound 41, 2′-Aminomethyl-5′-(pyridin-4-ylcarbamoyl)-biphenyl-3-carboxylic acid 2-methoxy-ethyl ester], the IC50 is 0.1 to 1 µM.

With `NCc1ccc(C(=O)Nc2ccncc2F)cc1-c1cccc(C(=O)OCC2CCC2)c1` [Compound 184], the IC50 lay in the range of 0.1 to 1 µM.
